Measured values reported in patent publication US20070128217A1 (priority 2003, published 2007).

Columns and labels:
[1] = system: recombinant human anti-SARS-CoV antibody 03-018; format: binding; parameters: Binding of antibody 03-018 to linear peptides of the N protein of SARS-CoV Urbani / Binding of antibody 03-018 to looped/cyclic peptides of the N protein of SARS-CoV Urbani: unit not given here
[2] = system: rabbit serum obtained by immunizing a rabbit with the SARS-CoV strain Frankfurt 1; format: binding; parameters: Binding of a rabbit serum to linear peptides / Binding of a rabbit serum to looped peptides / Rabbit serum linear peptides / Rabbit serum looped peptides / Binding of a rabbit serum to linear peptides of protein N of SARS-CoV Urbani (Rabbit serum linear peptides) / Binding of a rabbit serum to looped/cyclic peptides of protein N of SARS-CoV Urbani (Rabbit serum looped peptides): unit not given here
[3] = system: antibodies in sera from SARS patients (sera 1a, 1b, 2, 6, 37, 62, London, SARS-yellow, SARS-green); format: binding, human; parameters: Binding of serum 6 to linear peptides of protein X1 of SARS-CoV Urbani / Binding of serum 37 to linear peptides of protein X1 of SARS-CoV Urbani / Binding of serum 6 to looped/cyclic peptide (PEPSCAN-ELISA) / Binding of serum 37 to looped/cyclic peptide (PEPSCAN-ELISA) / Binding of serum 37 to looped/cyclic peptides of protein X1 of SARS-CoV Urbani / Binding of serum 6 to linear peptides of protein X2 / Binding of serum 37 to linear peptides of protein X2 / Binding of serum 37 to looped/cyclic peptides of protein X2 of SARS-CoV Urbani / Binding of serum 6 to linear peptides of protein M of SARS-CoV Urbani / Binding of serum 37 to linear peptides of protein M of SARS-CoV Urbani / Binding of serum 6 to looped/cyclic peptides of protein M of SARS-CoV Urbani / Binding of serum 37 to looped/cyclic peptides of protein M of SARS-CoV Urbani / Binding of serum 6 to linear peptides of protein X3 of SARS-CoV Urbani / Binding of serum 37 to linear peptides of protein X3 of SARS-CoV Urbani / Binding of serum 37 to looped/cyclic peptides of protein X3 of SARS-CoV Urbani / Binding of serum 6 to linear peptides of protein X4 of SARS-CoV Urbani / Binding of serum 37 to linear peptides of protein X4 of SARS-CoV Urbani / Binding of serum 37 to looped/cyclic peptides of protein X4 of SARS-CoV Urbani / Binding of serum 6 to linear peptides of protein X5 of SARS-CoV Urbani / Binding of serum 37 to linear peptides of protein X5 of SARS-CoV Urbani / Binding of serum 37 to looped/cyclic peptides of protein X5 of SARS-CoV Urbani / Binding of serum 6 to linear peptides of protein N of SARS-CoV Urbani / Binding of serum 37 to linear peptides of protein N of SARS-CoV Urbani / Binding of serum 6 to linear peptide (PEPSCAN-ELISA) / Binding of serum 1a to looped/cyclic peptides of protein N of SARS-CoV Urbani / Binding of serum 1b to looped/cyclic peptides of protein N of SARS-CoV Urbani / Binding of serum 2 to looped/cyclic peptides of protein N of SARS-CoV Urbani / Binding of serum 6 to looped/cyclic peptides of protein N of SARS-CoV Urbani / Binding of serum 37 to looped/cyclic peptides of protein N of SARS-CoV Urbani / Binding of serum 62 to looped/cyclic peptides of protein N of SARS-CoV Urbani / Binding of serum London to looped/cyclic peptides of protein N of SARS-CoV Urbani / Binding of serum SARS-green to looped/cyclic peptides of protein N of SARS-CoV Urbani: unit not given here
[4] = system: control sera (pooled serum of ten healthy LUMC hospital workers; commercial negative donor pooled serum from the Dutch bloodbank); format: binding, human; parameters: Binding of Control serum LUMC to linear peptides / Binding of Control serum Blood-bank to linear peptides / Binding of Control serum LUMC to looped peptides / Binding of Control Serum Blood-Bank to Looped peptides / Binding of Control serum LUMC to linear peptides of the protein M of SARS-CoV Urbani / Binding of Control serum Blood-bank to linear peptides of the protein M of SARS-CoV Urbani / Binding of Control serum LUMC to looped peptides of the protein M of SARS-CoV Urbani / Binding of Control Serum Blood-Bank to Looped peptides of the protein M of SARS-CoV Urbani: unit not given here

Row | Sequence | Binding of antibody 03-018 to linear peptides of the N protein of SARS-CoV Urbani [1] | Binding of antibody 03-018 to looped/cyclic peptides of the N protein of SARS-CoV Urbani [1] | Binding of a rabbit serum to linear peptides of protein N of SARS-CoV Urbani (Rabbit serum linear peptides) [2] | Binding of a rabbit serum to looped/cyclic peptides of protein N of SARS-CoV Urbani (Rabbit serum looped peptides) [2] | Binding of serum 1a to linear peptides of protein N of SARS-CoV Urbani [3] | Binding of serum 1a to looped/cyclic peptides of protein N of SARS-CoV Urbani [3] | Binding of serum 1b to linear peptides of protein N of SARS-CoV Urbani [3] | Binding of serum 1b to looped/cyclic peptides of protein N of SARS-CoV Urbani [3] | Binding of serum 2 to linear peptides of protein N of SARS-CoV Urbani [3] | Binding of serum 2 to looped/cyclic peptides of protein N of SARS-CoV Urbani [3] | Binding of serum 6 to linear peptides of protein N of SARS-CoV Urbani [3] | Binding of serum 6 to looped/cyclic peptides of protein N of SARS-CoV Urbani [3] | Binding of serum 37 to linear peptides of protein N of SARS-CoV Urbani [3] | Binding of serum 37 to looped/cyclic peptides of protein N of SARS-CoV Urbani [3] | Binding of serum 62 to linear peptides of protein N of SARS-CoV Urbani [3] | Binding of serum 62 to looped/cyclic peptides of protein N of SARS-CoV Urbani [3] | Binding of serum London to linear peptides of protein N of SARS-CoV Urbani [3] | Binding of serum London to looped/cyclic peptides of protein N of SARS-CoV Urbani [3] | Binding of serum SARS-green to looped/cyclic peptides of protein N of SARS-CoV Urbani [3] | Binding of serum SARS-yellow to looped/cyclic peptides of protein N of SARS-CoV Urbani [3] | also measured
1 | KELSPRWYFYYLGTG | 0.1 | 0.3 | 0.0 | 0.4 | 0.2 | 0.4 | 0.1 | 0.2 | 0.1 | 0.4 | 0.1 | 0.3 | 0.4 | 0.7 | 0.4 | 0.5 | 0.4 | 0.4 | 0.4 | 0.3 | Binding of serum SARS-green to linear peptides of protein N of SARS-CoV Urbani [3]: 0.1; Binding of serum SARS-yellow to linear peptides of protein N of SARS-CoV Urbani [3]: 0.5; Binding of Control Serum Blood-Bank to Looped peptides [4]: 0.7; Binding of Control serum Blood-bank to linear peptides [4]: 0.4; Binding of Control serum LUMC to linear peptides [4]: 0.4; Binding of Control serum LUMC to looped peptides [4]: 0.6
2 | KGFYAEGSRGGSQAS | 0.1 | 0.2 | 0.1 | 0.1 | – | 0.3 | – | 0.2 | – | 0.3 | – | 0.2 | – | 0.4 | – | 0.3 | – | 0.3 | 0.1 | 0.1 | Binding of serum 1a to linear peptide (PEPSCAN-ELISA) [3]: 0.2; Binding of serum 1b to linear peptide (PEPSCAN-ELISA) [3]: 0.1; Binding of serum 2 to linear peptide (PEPSCAN-ELISA) [3]: 0.2; Binding of serum 6 to linear peptide (PEPSCAN-ELISA) [3]: 0.2; Binding of serum 37 to linear peptide (PEPSCAN-ELISA) [3]: 0.6; Binding of serum 62 to linear peptide (PEPSCAN-ELISA) [3]: 0.5; Binding of serum London to linear peptide (PEPSCAN-ELISA) [3]: 0.4; Binding of serum SARS-green to linear peptide (PEPSCAN-ELISA) [3]: 0.2; Binding of serum SARS-yellow to linear peptide (PEPSCAN-ELISA) [3]: 0.5; Binding of Control Serum Blood-Bank to Looped peptides [4]: 0.5; Binding of Control serum Blood-bank to linear peptides [4]: 0.7; Binding of Control serum LUMC to linear peptides [4]: 0.5; Binding of Control serum LUMC to looped peptides [4]: 0.4
3 | KHIDAYKTFPPTEPK | 0.1 | 0.2 | 0.1 | 0.2 | 0.3 | 0.2 | 0.1 | 0.1 | 0.3 | 0.2 | 0.2 | 0.1 | 0.7 | 0.4 | 0.8 | 0.3 | 0.5 | 0.3 | 0.1 | 0.1 | Binding of serum SARS-green to linear peptides of protein N of SARS-CoV Urbani [3]: 0.5; Binding of serum SARS-yellow to linear peptides of protein N of SARS-CoV Urbani [3]: 0.8; Control Serum Blood-Bank Looped peptides [4]: 0.3; Control serum Blood-bank linear peptides [4]: 0.8; Control serum LUMC linear peptides [4]: 0.7; Control serum LUMC looped peptides [4]: 0.3
